Drawing on patent US9624188B2, “IDO inhibitors” (BRISTOL-MYERS SQUIBB COMPANY, priority 2013, dated 2017), this text covers IC50 for eleven compounds.

Human IDO1, sequence (P14902 whole entry): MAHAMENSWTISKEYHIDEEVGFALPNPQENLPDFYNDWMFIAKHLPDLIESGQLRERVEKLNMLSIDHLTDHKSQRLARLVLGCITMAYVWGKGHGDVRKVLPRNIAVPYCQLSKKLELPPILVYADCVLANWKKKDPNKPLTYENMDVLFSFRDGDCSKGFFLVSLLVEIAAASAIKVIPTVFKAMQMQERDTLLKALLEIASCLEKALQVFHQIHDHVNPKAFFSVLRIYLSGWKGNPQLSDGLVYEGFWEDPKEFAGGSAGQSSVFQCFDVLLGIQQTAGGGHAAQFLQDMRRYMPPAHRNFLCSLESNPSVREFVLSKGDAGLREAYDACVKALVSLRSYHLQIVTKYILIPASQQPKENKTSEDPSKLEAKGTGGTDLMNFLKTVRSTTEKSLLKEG

The target in the test is Human IDO1 (Homo sapiens (Human), UniProt P14902). The experiment in a line: IDO Kynurenine Assay with Human IDO1/HEK293 Cells. Format: cell-based. The following applies: 20 hours incubation, kynurenine detected with Ehrlich reagent, absorbance at 490 nm, read-out: HEK Human IDO-1 IC50. As for the experimental part:
IDO Kynurenine Assay with Human IDO1/HEK293 Cells
Human IDO1/HEK293 cells were seeded at 10,000 cells per 50 uL per well with RPMI/phenol red free media contains 10% FBS in a 384-well black wall clear bottom tissue culture plate (Matrix Technologies LLC) 125 nL of certain concentration of compound was then added to each well using ECHO liquid handling systems. The cells were incubated for 20 hours in 37° C. incubator with 5% CO2.
The compound treatments were stopped by adding Trichloroacetic Acid (Sigma-Aldrich) to a final concentration at 0.2%. The cell plate was further incubated at 50° C. for 30 minute. The equal volume supernatant (20 uL) and 0.2% (w/v) Ehrlich reagent (4-dimethylaminobenzaldehyde, Sigma-Aldrich) in glacial acetic acid were mixed in a new clear bottom 384-well plate. This plate was then incubated at room temperature for 30 minute. The absorbance at 490 nm was measured on Envision plate reader.
Compound IC50 values were calculated using the counts of 500 nM of a reference standard treatment as one hundred percent inhibition, and counts of no compound but DMSO treatment as zero percent inhibition.
`Cc1cc(NC(=O)Nc2cc(C(C)CC(=O)O)ccc2N(CC(C)C)CC(C)C)on1` (racemic) [Example 13, 3-(4-(diisobutylamino)-3-(3-(3-methylisoxazol-5-yl)ureido)phenyl)butanoic acid]: the IC50 is 3 nM.
The value for `Cc1ncc(NC(=O)Nc2cc([C@H](C)CC(=O)O)ccc2N(CC(C)C)CC(C)C)cn1` [Example 40, (R)-3-(4-(diisobutylamino)-3-(3-(2-methylpyrimidin-5-yl)ureido)phenyl)butanoic acid] was 22 nM.
With `Cc1ccc(NC(=O)Nc2cc(C(C)CC(=O)O)ccc2N(CC(C)C)C2CCCCC2)cc1` (racemic) [Example 49, 3-(4-(cyclohexyl(isobutyl)amino)-3-(3-(p-tolyl)ureido)phenyl)butanoic acid] the figure was 1 nM; with `CC(C)CN(CC(C)C)c1ccc(C(CC(=O)O)C(F)(F)F)cc1NC(=O)Nc1ccc(F)cc1F` (centres unmarked) [Example 30, 3-(3-(3-(2,4-difluorophenyl)ureido)-4-(diisobutylamino)phenyl)-4,4,4-trifluorobutanoic acid], 0.7 nM; with `Cc1ncc(NC(=O)Nc2cc([C@@H](C)CC(=O)O)ccc2N(CC(C)C)CC(C)C)cn1` [Example 39, (S)-3-(4-(diisobutylamino)-3-(3-(2-methylpyrimidin-5-yl)ureido)phenyl)butanoic acid], 169 nM.
The value for `CC(C)CN(CC(C)C)c1ccc([C@H](C)CC(=O)O)cc1NC(=O)Cc1ccc(C#N)cc1` [Example 45, (R)-3-(3-(2-(4-cyanophenyl)acetamido)-4-(diisobutylamino)phenyl)butanoic acid] was 5 nM.
In the case of `CC(C)CN(CC(C)C)c1ccc([C@H](C)CC(=O)O)cc1NC(=O)Nc1cncnc1` [Example 37, (R)-3-(4-(diisobutylamino)-3-(3-(pyrimidin-5-yl)ureido)phenyl)butanoic acid], the half-maximal inhibitory concentration (IC50) was 11 nM.
With `Cc1cc(NC(=O)Nc2cc([C@@H](C)CC(=O)O)ccc2N(CC(C)C)CC(C)C)no1` [Example 44, (S)-3-(4-(diisobutylamino)-3-(3-(5-methylisoxazol-3-yl)ureido)phenyl)butanoic acid] the figure was 87 nM.
The value for `Cc1ccc(NC(=O)Nc2cc(C3(CC(=O)O)COC3)ccc2N(CC(C)C)CC(C)C)cc1` [Example 2, 2-(3-(4-(diisobutylamino)-3-(3-(p-tolyl)ureido)phenyl)oxetan-3-yl)acetic acid] was 205 nM; that for `Cc1ccc(NC(=O)Nc2cc([C@@H](C)CC(=O)O)ccc2N(CC(C)C)CC(C)C)cc1` [Example 43, (S)-3-(4-(diisobutylamino)-3-(3-(p-tolyl)ureido)phenyl)butanoic acid] was 17 nM.
With `CC(C)CN(CC(C)C)c1ccc([C@@H](C)CC(=O)O)cc1NC(=O)Nc1cncnc1` [Example 38, (S)-3-(4-(diisobutylamino)-3-(3-(pyrimidin-5-yl)ureido)phenyl)butanoic acid] the figure was 29 nM.
